Assay results as given in patent publication US20170209432A1, “LYSINE DEMETHYLASE INHIBITORS FOR MYELOPROLIFERATIVE OR LYMPHOPROLIFERATIVE DISEASES OR DISORDERS” (ORYZON GENOMICS S.A., priority 2011, published 2017).
Like-named read-outs stand apart in the source and are kept apart here. Blank lines part the entries; values can stand above or below the molecule they belong to.

Key:
platelets = experiment: Platelet levels in mice after 5 consecutive once daily injections; assay type: in vivo, mice (Hsd:Athymic Nude-Foxn1nu); details: blood 60min after last dose
Protocol: On the fifth day, 60min after the administration, mice were sacrificed and blood was collected in sodium citrate-containing tubes for haemogram analysis. Platelet levels were determined and referred as % of platelets compared with the levels found in mice treated with vehicle. Platelet levels were determined in a standard hematology analyzer (Abacus Junior Vet, from Diatron) following the manufacturer's instructions.
20% 2-hydroxypropyl-β-cyclodextrin in H2O was used as a vehicle. When necessary, 10% DMSO was also added in the vehicle. Each day, compounds were administered in a single intraperitoneal injection with administration volumes of 15 ml/kg.
Mice strain was Hsd:Athymic Nude-Foxn1nu. Animals were maintained in air and temperature controlled cages with regular supply of water and food.

[1] = biological target: T1, Human recombinant monoamine oxidase MAO-A (Homo sapiens, UniProt P21397); experiment: MAO-A inhibition, kynuramine fluorescence assay; assay type: biochemical
T1 construct: purchased Sigma Aldrich
T1 sequence (P21397 1-527): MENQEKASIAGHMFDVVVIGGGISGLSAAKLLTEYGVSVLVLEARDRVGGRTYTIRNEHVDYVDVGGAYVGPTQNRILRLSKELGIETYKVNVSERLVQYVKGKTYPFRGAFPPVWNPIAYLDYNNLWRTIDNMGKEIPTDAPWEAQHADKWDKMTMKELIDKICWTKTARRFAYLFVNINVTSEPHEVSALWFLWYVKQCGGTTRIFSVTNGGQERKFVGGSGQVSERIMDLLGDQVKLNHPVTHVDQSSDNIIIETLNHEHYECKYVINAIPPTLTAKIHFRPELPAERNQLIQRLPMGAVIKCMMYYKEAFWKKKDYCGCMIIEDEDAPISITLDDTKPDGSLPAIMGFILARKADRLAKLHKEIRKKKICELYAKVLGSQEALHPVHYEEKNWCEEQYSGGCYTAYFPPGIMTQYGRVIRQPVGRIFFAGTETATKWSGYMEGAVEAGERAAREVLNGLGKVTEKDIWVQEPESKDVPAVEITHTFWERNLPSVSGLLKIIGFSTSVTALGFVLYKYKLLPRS
Description: (§1) Human recombinant monoamine oxidase proteins MAO-A and MAO-B were purchased from Sigma Aldrich. MAOs catalyze the oxidative deamination of primary, secondary and tertiary amines. In order to monitor MAO enzymatic activities and/or their inhibition rate by inhibitor(s) of interest, a fluorescent-based (inhibitor)-screening assay was set up. 3-(2-Aminophenyl)-3-oxopropanamine (kynuramine dihydrobromide, Sigma Aldrich), a non fluorescent compound was chosen as a substrate. Kynuramine is a non-specific substrate for both MAOs activities. While undergoing oxidative deamination by MAO activities, kynuramine is converted into 4-hydroxyquinoline (4-HQ), a resulting fluorescent product.
The monoamine oxidase activity was estimated by measuring the conversion of kynuramine into 4-hydroxyquinoline. Assays were conducted in 96-well black plates with clear bottom (Corning) in a final volume of 100 μL. The assay buffer was 100 mM HEPES, pH 7.5. Each experiment was performed in triplicate within the same experiment.
Briefly, a fixed amount of MAO (0.25 μg for MAO-A and 0.5 μg for MAO-B) was incubated on ice for 15 minutes in the reaction buffer, in the absence and/or in the presence of various concentrations of inhibitor (e.g., from 0 to 50 μM, depending on the inhibitor strength).
(§2) After leaving the enzyme(s) interacting with the inhibitor, 60 to 90 μM of kynuramine was added to each reaction for MAO-B and MAO-A assay respectively, and the reaction was left for 1 hour at 37° C. in the dark. The oxidative deamination of the substrate was stopped by adding 50 μL (v/v) of NaOH 2N. The conversion of kynuramine to 4-hydroxyquinoline, was monitored by fluorescence (excitation at 320 nm, emission at 360 nm) using a microplate reader (Infinite 200, Tecan). Arbitrary units were used to measure levels of fluorescence produced in the absence and/or in the presence of inhibitor.
(§3) The Ki (IC50) of each inhibitor was determined at Vmax/2.

[2] = tested on: H3K4 methylation in SH-SY5Y cells; experiment: Western blot for dimethylated H3-K4 in cells grown with compound; assay type: cell-based
Description: FIG. 3 Compound Dual-1 Increases Histone Methylation.
B-actin was used as a loading control.

LSD1 = LSD1 (Homo sapiens, UniProt O60341); experiment: LSD1 demethylase inhibition, Amplex Red peroxide/peroxidase-coupled assay; assay type: biochemical; design: purchased BPS Bioscience Inc
Description: Compounds for use in the methods of the invention can be identified by their ability to inhibit LSD1. The ability of the compounds of the invention to inhibit LSD1 can be tested as follows. Human recombinant LSD1 protein was purchased from BPS Bioscience Inc. In order to monitor LSD1 enzymatic activity and/or its inhibition rate by our inhibitor(s) of interest, di-methylated H3-K4 peptide (Millipore) was chosen as a substrate. The demethylase activity was estimated, under aerobic conditions, by measuring the release of H2O2 produced during the catalytic process, using the Amplex® Red peroxide/peroxidase-coupled assay kit (Invitrogen).
Within the experiment, each concentration of inhibitor was tested in triplicate. […] The enzymatic reactions were set up in a 50 mM sodium phosphate, pH 7.4 buffer. At the end of the incubation, Amplex® Red reagent and horseradish peroxidase (HPR) solution were added to the reaction according to the recommendations provided by the supplier (Invitrogen), and left to incubate for 30 extra minutes at room temperature in the dark. A 1 μM H2O2 solution was used as a control of the kit efficiency. The conversion of the Amplex® Red reagent to resorufin due to the presence of H2O2 in the assay, was monitored by fluorescence (excitation at 540 nm, emission at 590 nm) using a microplate reader (Infinite 200, Tecan). Arbitrary units were used to measure level of H2O2 produced in the absence and/or in the presence of inhibitor.
The maximum demethylase activity of LSD1 was obtained in the absence of inhibitor and corrected for background fluorescence in the absence of LSD1. The Ki (IC50) of each inhibitor was estimated at half of the maximum activity.

[3] = tested on: K562 chronic myelogenous leukemia cells; experiment: In vitro cytotoxicity, fluorometry-based cell viability, K562; details: Homo sapiens, K562, 72 h
Protocol: (§4) K562 chronic myelogenous leukemia cells were seeded at different cell densities in 96-well plates. 24 hours later, compounds were added at serial dilutions.

[4] = biological target: T2, Human recombinant monoamine oxidase MAO-B (Homo sapiens, UniProt P27338); experiment: MAO-B inhibition, kynuramine fluorescence assay; assay type: biochemical
T2 construct: purchased Sigma Aldrich
T2 sequence (P27338 1-520): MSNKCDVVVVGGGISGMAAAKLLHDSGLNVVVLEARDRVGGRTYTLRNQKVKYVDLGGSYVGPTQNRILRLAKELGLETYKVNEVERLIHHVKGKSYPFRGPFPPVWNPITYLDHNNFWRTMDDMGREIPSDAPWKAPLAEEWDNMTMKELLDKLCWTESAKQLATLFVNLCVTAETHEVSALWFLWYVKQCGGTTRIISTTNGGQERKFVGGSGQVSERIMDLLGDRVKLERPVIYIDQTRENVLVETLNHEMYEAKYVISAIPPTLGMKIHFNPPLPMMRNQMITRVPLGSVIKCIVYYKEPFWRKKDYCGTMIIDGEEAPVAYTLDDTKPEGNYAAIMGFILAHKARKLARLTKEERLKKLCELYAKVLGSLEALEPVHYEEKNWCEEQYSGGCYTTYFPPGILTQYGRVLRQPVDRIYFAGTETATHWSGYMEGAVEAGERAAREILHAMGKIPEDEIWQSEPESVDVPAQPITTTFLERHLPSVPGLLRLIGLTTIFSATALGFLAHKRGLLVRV
Description: as §1
The monoamine oxidase activity was estimated by measuring the conversion of kynuramine into 4-hydroxyquinoline. […]
as §2, with “The oxidative deamination of the substrate was stopped by adding 50 μL (v/v) of NaOH 2N.” left out
as §3

[5] = tested on: Jurkat (acute T cell leukemia); experiment: In vitro cytotoxicity, Jurkat; assay type: cell-based; details: Homo sapiens, same protocol as K562
Protocol: as §4
(§5) Following the same protocol, in vitro cytotoxicity against other hematological cancer cell lines was tested.

[6] = tested on: HL-60 (acute promyelocytic leukemia); experiment: In vitro cytotoxicity, HL-60; assay type: cell-based; details: Homo sapiens; HL-60, same protocol as K562
Protocol: as §4, §5

[7] = tested on: RPMI-8226 (Multiple myeloma); experiment: In vitro cytotoxicity, RPMI-8226; assay type: cell-based; details: Homo sapiens; RPMI-8226, same protocol as K562
Protocol: as §4, §5

[8] = 3 mg/kg intraperitoneal once daily for 5 days
[9] = 10 mg/kg intraperitoneal once daily for 5 days
[10] = 20 mg/kg intraperitoneal once daily for 5 days
[11] = 40 mg/kg intraperitoneal once daily for 5 days
[12] = 30 mg/kg intraperitoneal once daily for 5 days
[13] = read-out: EC50 (μM), concentration at which 50% of the cells remain viable, K562, cell density 3xA, 72h after compound addition
[14] = read-out: EC50 (μM), concentration at which 50% of the cells remain viable, K562, cell density 10xA, 72h after compound addition
[15] = read-out: EC50 (μM), concentration at which 50% of the cells remain viable, K562, cell density A, 72h after compound addition

Compound: CN1CCN(C(=O)CN[C@H]2C[C@@H]2c2ccc(OCc3ccccc3)cc2)CC1 (racemic) [Compound 3]
% platelets vs. Vehicle (platelets; 1 mg/kg intraperitoneal once daily for 5 days): 46%
% platelets vs. Vehicle (platelets; [8]): 16%
% platelets vs. Vehicle (platelets; [9]): 5%

IC50 [1]: > 2 µM
IC50 (LSD1): < 0.2 µM
Compound: NC(=O)CN[C@H]1CC1c1ccc(OCc2ccccc2)cc1 (stereo partly drawn) [Compound 1]
H3K4 methylation in cells (western blot) ([2]; SH-SY5Y cells grown with compound for 1, 2, and 3 days, Dual-1 at 100 μM (FIG. 3)): increases H3K4 (4 methylation in cells in a time dependent manner
potency at increasing global dimethylated H3K4 levels as compared to tranylcypromine ([2]; SH-SY5Y cells, Dual-1 at 100 μM, parnate at 250 μM): ≥ 10 fold
% platelets vs. Vehicle (platelets; 5 mg/kg intraperitoneal once daily for 5 days): 91%
% platelets vs. Vehicle (platelets; [9]): 66%
% platelets vs. Vehicle (platelets; [10]): 55%
% platelets vs. Vehicle (platelets; [11]): 34%

IC50 [1]: > 2 µM
IC50 (LSD1): < 0.2 µM
Compound: NC(=O)CN[C@@H]1C[C@H]1c1ccc(OCc2ccccc2)cc1 [Compound 2]
% platelets vs. Vehicle (platelets; [10]): 35%
% platelets vs. Vehicle (platelets; [11]): 27%
% platelets vs. Vehicle (platelets; 60 mg/kg intraperitoneal once daily for 5 days): 16%

Compound: N[C@H]1C[C@@H]1c1ccc(-c2cccc(C(F)(F)F)c2)nc1 [Compound 4]
% platelets vs. Vehicle (platelets; [8]): 87%
% platelets vs. Vehicle (platelets; 9 mg/kg intraperitoneal once daily for 5 days): 30%
% platelets vs. Vehicle (platelets; [9]): 19%
% platelets vs. Vehicle (platelets; 18 mg/kg intraperitoneal once daily for 5 days): 19%
% platelets vs. Vehicle (platelets; [12]): 7%
% platelets vs. Vehicle (platelets; 36 mg/kg intraperitoneal once daily for 5 days): 11%

Compound: N[C@H]1CCN(CCN[C@H]2C[C@@H]2c2ccc(-c3cccc(C(F)(F)F)c3)cc2)C1 [Compound 5]
% platelets vs. Vehicle (platelets; [9]): 87%
% platelets vs. Vehicle (platelets; [12]): 63%

Compound: N[C@H]1CC1c1ccc(-c2cccc(O)c2)cc1 (stereo partly drawn) [Compound 6]
EC50 [3, 13]: 10.3 µM
EC50 [3, 14]: 16.8 µM
EC50 [3, 15]: 16.2 µM
IC50 [1]: > 1 µM
IC50 [4]: > 1 µM
IC50 (LSD1): < 0.07 µM
% platelets vs. Vehicle (platelets; 17 mg/kg intraperitoneal once daily for 5 days): 56%
% platelets vs. Vehicle (platelets; 34 mg/kg intraperitoneal once daily for 5 days): 46%
% platelets vs. Vehicle (platelets; 52 mg/kg intraperitoneal once daily for 5 days): 63%

IC50 [1]: > 1 µM
IC50 [4]: > 10 µM
IC50 (LSD1): < 0.07 µM
Compound: CC(C)S(=O)(=O)Nc1cccc(-c2ccc([C@H]3C[C@@H]3N)cc2)c1 [Compound 8]
EC50 [3, 13]: 16.3 µM
EC50 [3, 14]: 19.7 µM
EC50 [3, 15]: 17.2 µM
GI50 [5]: 18.2 µM
GI50 [6]: 21.2 µM
GI50 [7]: 35.6 µM

Compound: CC(C)S(=O)(=O)Nc1cccc(-c2ccc([C@H]3C[C@@H]3N)cn2)c1 [Compound 9]
EC50 [3, 13]: 57.1 µM
EC50 [3, 14]: 95.1 µM
EC50 [3, 15]: 31.5 µM

Compound: N[C@H]1C[C@@H]1c1ccc(-c2cccc(NS(=O)(=O)c3ccccc3)c2)cc1 [Compound 10]
EC50 [3, 13]: 13.2 µM
EC50 [3, 14]: 17.4 µM
EC50 [3, 15]: 14.8 µM
